Source: US20230348426A1, “OXOPYRROLIDINE FPR2 AGONISTS” (Bristol-Myers Squibb Company, priority 2020, published 2023)

Legend:
[1] = target: human FPR1 (Homo sapiens (Human), UniProt P21462); experiment: FPR1 cyclic adenosine monophosphate (cAMP) assay; assay type: cell-based; conditions: CHO cells overexpressing human FPR1; forskolin 10 µM; inhibition of cAMP production; read-out: hFPR1 cAMP EC50
In short: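 Human FPR1-expressing CHO cells were used at 4,000 per well, with compound at 0.020 nM–100 µM in 1% DMSO. Potency came from a 4-parameter logistic fit.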

[2] = target: human FPR2 (Homo sapiens (Human), UniProt P25090); experiment: FPR2 cyclic adenosine monophosphate (cAMP) assay; assay type: cell-based; conditions: CHO cells overexpressing human FPR2; forskolin 5 µM; inhibition of cAMP production; read-out: hFPR2 cAMP2 EC50
human FPR2, sequence (P25090 whole entry): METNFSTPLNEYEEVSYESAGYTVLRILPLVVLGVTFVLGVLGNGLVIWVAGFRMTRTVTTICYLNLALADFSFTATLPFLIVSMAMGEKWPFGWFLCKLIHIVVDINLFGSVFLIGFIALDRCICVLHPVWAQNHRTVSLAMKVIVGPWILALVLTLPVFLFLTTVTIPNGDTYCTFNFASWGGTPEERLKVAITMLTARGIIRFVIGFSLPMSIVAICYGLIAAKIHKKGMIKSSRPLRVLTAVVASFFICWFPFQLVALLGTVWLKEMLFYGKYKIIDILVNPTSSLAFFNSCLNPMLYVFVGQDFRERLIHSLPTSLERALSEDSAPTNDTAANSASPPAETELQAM
In short: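 Inhibition of forskolin-driven (5 µM) cAMP, with 200 µM IBMX, measured in human FPR2-expressing CHO cells, 2,000 per well, 30 min at room temperature; compounds tested 0.020 nM to 100 µM in 1% DMSO. HTRF 665/590 ratio converted to cAMP via calibration curve, then 4-parameter fit.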

human FPR1, sequence (P21462 whole entry): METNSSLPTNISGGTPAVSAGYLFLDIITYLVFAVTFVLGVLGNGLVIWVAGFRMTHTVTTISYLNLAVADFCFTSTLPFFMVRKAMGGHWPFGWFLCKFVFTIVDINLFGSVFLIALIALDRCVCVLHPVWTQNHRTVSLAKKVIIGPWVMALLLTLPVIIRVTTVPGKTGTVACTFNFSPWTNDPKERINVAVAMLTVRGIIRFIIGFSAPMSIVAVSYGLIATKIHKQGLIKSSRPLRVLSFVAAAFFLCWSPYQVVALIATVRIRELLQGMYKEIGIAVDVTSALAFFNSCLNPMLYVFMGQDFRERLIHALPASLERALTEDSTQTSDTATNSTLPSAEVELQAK

Structure (SMILES) | EC50 [1] [nM] | EC50 [2] [nM]
CCn1cc(F)cc(N2C[C@@H](c3c(F)cc(OC)cc3F)[C@H](NC(=O)c3ccc(OC(F)(F)F)cc3)C2=O)c1=O [Example 230] | 88 | 6.2
CCn1c2c(cc(N3C[C@@H](c4c(F)cc(OC)cc4F)[C@H](NC(=O)c4ccc(OC(F)F)cc4)C3=O)c1=O)CCCC2 [Example 460] | 1 | 1.4
COc1cc(F)c([C@@H]2CN(c3ccnn(CCC(F)(F)F)c3=O)C(=O)[C@H]2NC(=O)c2ccc(OC(F)F)cc2)c(F)c1 [Example 468] | 18 | 2.1
COCCn1ncc(C)c(N2C[C@@H](c3c(F)cc(OC)cc3F)[C@H](NC(=O)c3ccc(OC(F)(F)F)cc3)C2=O)c1=O [Example 471] | 2 | 1.1
COc1cc(F)c([C@@H]2CN(c3c(Cl)ccn(C)c3=O)C(=O)[C@H]2NC(=O)c2ccc(OC(F)F)cc2)c(F)c1 [Example 286] | 130 | 8.5
COc1cc(F)c([C@@H]2CN(c3c(C)ccn(C4CCOC4)c3=O)C(=O)[C@H]2NC(=O)c2ccc(OC(F)(F)F)cc2)c(F)c1 (stereo partly shown) [Example 350] | 0.6 | 0.9
COc1cc(N2C[C@@H](c3c(F)cc(OC)cc3F)[C@H](NC(=O)c3ccc(OC(F)F)cc3)C2=O)nc(N2C[C@@H]3C[C@H]2CN3C)c1 [Example 285] | 220 | 2.9
COc1cc(F)c([C@@H]2CN(c3cc(OC)ccc3F)C(=O)[C@H]2NC(=O)c2ccc(OC(F)(F)F)cc2)c(F)c1 [Example 8] | 280 | 15
COc1ccnc(N2C[C@@H](c3c(F)cc(OC)cc3F)[C@H](NC(=O)c3ccc(OC(F)(F)F)cc3)C2=O)c1 [Example 23] | 1500 | 28
COc1cc(F)c([C@@H]2CN(c3nc(NC(C)=O)ccc3F)C(=O)[C@H]2NC(=O)c2ccc(OC(F)(F)F)cc2)c(F)c1 [Example 206] | 24 | 5.4
CCN1CCC(N2C[C@@H](c3c(F)cc(OC)cc3F)[C@H](NC(=O)c3ccc(OC(F)F)cc3)C2=O)C1=O (stereo partly shown) [Example 390] | 76 | 4.8
COc1ccc([C@@H]2CN(c3cccn(CC(C)O)c3=O)C(=O)[C@H]2NC(=O)c2ccc(OC(F)F)cc2)cc1 (stereo partly shown) [Example 434] | 10 | 4.4
CCn1nccc(N2C[C@@H](c3c(F)cc(OC)cc3F)[C@H](NC(=O)c3ccc(OC(F)F)cc3)C2=O)c1=O [Example 358] | 14 | 2
COc1cc(F)c([C@@H]2CN(c3cc(OCC4CCOC4)ncn3)C(=O)[C@H]2NC(=O)c2ccc(Cl)cc2)c(F)c1 (stereo partly shown) [Example 509] | 79 | 41
COCC(CO)n1cccc(N2C[C@@H](c3c(F)cc(OC)cc3F)[C@H](NC(=O)c3ccc(OC(F)F)cc3)C2=O)c1=O (stereo partly shown) [Example 142] | 87 | 3.6
COc1cc(F)c([C@@H]2CN(c3ncccc3CO)C(=O)[C@H]2NC(=O)c2ccc(OC(F)(F)F)cc2)c(F)c1 [Example 27] | 570 | 27
COc1cc(F)c([C@@H]2CN(c3c(C)ccn(C4CCN(C)C4)c3=O)C(=O)[C@H]2NC(=O)c2ccc(OC(F)F)cc2)c(F)c1 (stereo partly shown) [Example 507] | 150 | 2.3
COc1cc(F)c([C@@H]2CN(c3c(C)ccn(Cc4cc(C)no4)c3=O)C(=O)[C@H]2NC(=O)c2ccc(OC(F)F)cc2)c(F)c1 [Example 579] | 5.5 | 5.8
COc1ccc([C@@H]2CN(c3cccn(CC(OC)C(F)(F)F)c3=O)C(=O)[C@H]2NC(=O)c2ccc(Cl)cc2)cc1 (stereo partly shown) [Example 393] | 2 | 2.4

Structure (SMILES) | EC50 [1] [nM] | EC50 [2] [nM]
COc1cc(F)c([C@@H]2CN(c3c(C)ccn(C4CCS(=O)(=O)CC4)c3=O)C(=O)[C@H]2NC(=O)c2ccc(OC(F)F)cc2)c(F)c1 [Example 626] | 13 | 0.7
COc1cc(F)c([C@@H]2CN(c3cccnc3OC3CCOC3)C(=O)[C@H]2NC(=O)c2ccc(OC(F)F)cc2)c(F)c1 (stereo partly shown) [Example 157] | 100 | 4
COc1cc(F)c([C@@H]2CN(c3c(C)ccn(CC(O)C(F)(F)F)c3=O)C(=O)[C@H]2NC(=O)c2ccc(Cl)cc2)c(F)c1 (stereo partly shown) [Example 483] | 16 | 5.6
COc1cc(C2CCN(C)CC2)nc(N2C[C@@H](c3c(F)cc(OC)cc3F)[C@H](NC(=O)c3ccc(OC(F)F)cc3)C2=O)c1 [Example 498] | > 5000 | 1.8
COc1cc(F)c([C@H]2[C@H](NC(=O)c3ccc(OC(F)F)cc3)C(=O)N(c3cccc(C4CCCN(CCO)C4)n3)[C@H]2C)c(F)c1 (stereo partly shown) [Example 515] | 2200 | 2.1
COc1cc(F)c([C@@H]2CN(c3cc(C)cc(C4CCNCC4)n3)C(=O)[C@H]2NC(=O)c2ccc(OC(F)F)cc2)c(F)c1 [Example 716] | > 5000 | 5.7
COc1cc(F)c([C@@H]2CN(c3ccc(C)n(C)c3=O)C(=O)[C@H]2NC(=O)c2ccc(OC(F)F)cc2)c(F)c1 [Example 324] | 130 | 11
COc1ccc([C@@H]2CN(c3c(C)ccn(CC4CCOCC4)c3=O)C(=O)[C@H]2NC(=O)c2ccc(OC(F)F)cc2)c(F)c1 [Example 698] | 2.5 | 5.7
COc1cc(F)c([C@H]2[C@H](NC(=O)c3ccc(Cl)cc3)C(=O)N(c3nccn(CC(F)F)c3=O)[C@@H]2C)c(F)c1 [Example 554] | 2400 | 4.3
COc1cc(F)c([C@@H]2CN(c3cccc(N4C[C@@H]5C[C@H]4CN5C)n3)C(=O)[C@H]2NC(=O)c2ccc(OC(F)F)cc2)c(F)c1 [Example 531] | 3200 | 1.6
COc1cc(N2C[C@@H](C)N(C)[C@@H](C)C2)nc(N2C[C@@H](c3c(F)cc(OC)cc3F)[C@H](NC(=O)c3ccc(OC(F)F)cc3)C2=O)c1 [Example 214] | 2400 | 5.6
COCC(C(=O)N(C)C)n1ccc(C)c(N2C[C@@H](c3c(F)cc(OC)cc3F)[C@H](NC(=O)c3ccc(OC(F)F)cc3)C2=O)c1=O (stereo partly shown) [Example 257] | 1.6 | 7.3
COCC(CO)n1cccc(N2C[C@@H](c3ccc(OC)cc3)[C@H](NC(=O)c3ccc(Cl)cc3)C2=O)c1=O (stereo partly shown) [Example 397] | 15 | 2.7
COc1ccc([C@@H]2CN(c3cccn(CCO)c3=O)C(=O)[C@H]2NC(=O)c2ccc(OC(F)(F)F)cc2)c(F)c1 [Example 63] | 16 | 1.7
COc1cc(F)c([C@@H]2CN(c3nccc(NC4CCOC4)c3C(F)(F)F)C(=O)[C@H]2NC(=O)c2ccc(Cl)cc2)c(F)c1 (stereo partly shown) [Example 263] | 1300 | 7.5
COc1cc(F)c([C@@H]2CN(c3cccn(CC(F)F)c3=O)C(=O)[C@H]2NC(=O)c2ccc(OC(F)F)cc2)c(F)c1 [Example 145] | 8.2 | 3.7
CCn1ccc(C)c(N2C[C@@H](c3c(F)cc(OC)cc3F)[C@H](NC(=O)c3ccc(OC(F)(F)F)cc3)C2=O)c1=O [Example 228] | 1.2 | 6.2
CCn1cccc(N2C[C@@H](c3ccc(OC)cc3)[C@H](NC(=O)c3ccc(OC(F)(F)F)cc3)C2=O)c1=O [Example 128] | 6.3 | 3.3
COc1cc(F)c([C@@H]2CN(c3cccn(CC(C)OC)c3=O)C(=O)[C@H]2NC(=O)c2ccc(OC(F)(F)F)cc2)c(F)c1 (stereo partly shown) [Example 138] | 1.7 | 3.5
